Measurements as given in ChEMBL document CHEMBL4673312, “Optimization of piperidine constructed peptidyl derivatives as proteasome inhibitors” (Bioorg Med Chem, 2021).

Assay: in vitro
Details: rat, plasma

| Structure (SMILES) | half-life at 2 µM |
| --- | --- |
| CC(C)(C)CNC(=O)C[C@H](NC(=O)N1CCC(NC(=O)c2ccc(F)cc2)CC1)C(=O)N[C@@H](CCc1ccccc1)C(=O)NCc1ccccc1Cl | 1.53 h |
| CC(C)(C)CNC(=O)C[C@H](NC(=O)[C@H](CC(=O)NCC(C)(C)C)NC(=O)N1CCC(C(=O)Nc2cccnc2)CC1)C(=O)NCc1ccccc1Cl | 1.2 h |
